# Active and inactive are the calls of the source. The rule behind the calls is not given here.
# Experiments:
# [1] = tested on: HeLa; experiment: Inhibition of TPA-stimulated AP1 gene promoter expression in human HeLa S3 cells by SEAP reporter gene assay; type: functional, cell-based
# [2] = tested on: Jurkat; experiment: Inhibition of TPA/ionomycin-stimulated human TNFalpha promoter expression in human Jurkat T cells by luciferase reporter gene assay; type: functional, cell-based
# [3] = tested on: U-937; experiment: Inhibition of TPA-stimulated TNFalpha production in human U937 cells; type: functional, cell-based
# [4] = tested on: HeLa; experiment: Inhibition of IFN-alpha-stimulated GAS/ISRE gene promoter expression in human HeLa S3 cells by SEAP reporter gene assay; type: functional, cell-based
# [5] = tested on: Jurkat; experiment: Inhibition of TPA-stimulated NF-AT/AP1 gene promoter expression in human Jurkat cells by SEAP reporter gene assay; type: functional, cell-based
# [6] = tested on: HepG2; experiment: Inhibition of IL6-stimulated IL6 gene promoter expression in human HepG2 cells by SEAP reporter gene assay; type: functional, cell-based
# [7] = tested on: Jurkat; experiment: Inhibition of TPA-stimulated NF-kappaB gene promoter expression in human Jurkat cells by SEAP reporter gene assay; type: functional, cell-based
# [8] = tested on: Jurkat; experiment: Inhibition of TPA-stimulated COX2 gene promoter expression in human Jurkat cells by luciferase reporter gene assay; type: functional, cell-based
# [9] = Cytotoxicity against human COLO320 cells after 48 hrs; type: functional; settings: COLO 320, 48 h
# [10] = tested on: HeLa; experiment: Cytotoxicity against human HeLa S3 cells after 48 hrs; type: functional
# [11] = tested on: HepG2; experiment: Cytotoxicity against human HepG2 cells after 48 hrs; type: functional; settings: HepG2, 48 h
# [12] = tested on: RAW; experiment: Cytotoxicity against mouse RAW […] cells after 48 hrs; type: functional
# [13] = tested on: HL-60; experiment: Cytotoxicity against human HL60 cells after 48 hrs; type: functional; settings: HL-60, 48 h
# [14] = tested on: Jurkat; experiment: Cytotoxicity against human Jurkat cells after 48 hrs; type: functional
# [15] = tested on: U-937; experiment: Cytotoxicity against human U937 cells after 48 hrs; type: functional; settings: U-937, 48 h
# [16] = target: Mitogen-activated protein kinase 3 (Homo sapiens) (UniProt P27361); experiment: Inhibition of TPA/ionomycin-induced ERK1 phosphorylation in human Jurkat cells upto 10 ug/ml by Western blotting; type: cell-based
# Chain of Mitogen-activated protein kinase 3 (Homo sapiens) (P27361 whole entry): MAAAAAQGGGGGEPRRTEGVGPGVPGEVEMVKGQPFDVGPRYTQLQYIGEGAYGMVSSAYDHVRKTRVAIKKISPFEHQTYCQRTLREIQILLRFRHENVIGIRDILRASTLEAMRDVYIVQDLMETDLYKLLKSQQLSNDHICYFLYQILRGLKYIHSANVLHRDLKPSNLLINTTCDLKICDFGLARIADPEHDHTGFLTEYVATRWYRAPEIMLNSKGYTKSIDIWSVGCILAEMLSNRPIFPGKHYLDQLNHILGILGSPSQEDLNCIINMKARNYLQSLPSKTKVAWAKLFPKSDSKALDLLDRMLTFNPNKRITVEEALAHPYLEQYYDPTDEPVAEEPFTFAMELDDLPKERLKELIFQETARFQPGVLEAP
# [17] = target: Mitogen-activated protein kinase 1 (Homo sapiens) (UniProt P28482); experiment: Inhibition of TPA/ionomycin-induced ERK2 phosphorylation in human Jurkat cells upto 10 ug/ml by Western blotting; type: cell-based
# Chain of Mitogen-activated protein kinase 1 (Homo sapiens) (P28482 whole entry): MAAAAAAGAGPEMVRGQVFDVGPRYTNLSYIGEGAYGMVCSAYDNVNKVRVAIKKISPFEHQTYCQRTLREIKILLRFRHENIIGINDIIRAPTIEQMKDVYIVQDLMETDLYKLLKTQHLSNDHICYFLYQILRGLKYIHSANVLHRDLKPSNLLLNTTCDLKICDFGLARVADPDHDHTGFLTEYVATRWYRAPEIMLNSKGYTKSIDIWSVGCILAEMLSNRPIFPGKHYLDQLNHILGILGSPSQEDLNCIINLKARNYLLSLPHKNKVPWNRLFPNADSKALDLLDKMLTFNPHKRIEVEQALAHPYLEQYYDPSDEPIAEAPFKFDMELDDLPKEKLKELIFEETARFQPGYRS
# [18] = target: MAP kinase p38 (Homo sapiens) (UniProt O15264+Q15759+Q16539+P53778); experiment: Inhibition of TPA/ionomycin-induced p38 kinase phosphorylation in human Jurkat cells upto 10 ug/ml by Western blotting; type: cell-based
# [19] = tested on: RAW; experiment: Inhibition of LPS/IFN-gamma-induced COX2 gene expression in mouse RAW 264.7 cells; type: functional, cell-based
# [20] = tested on: RAW; experiment: Inhibition of LPS/IFN-gamma-induced iNOS gene expression in mouse RAW 264.7 cells; type: functional, cell-based
# [21] = tested on: Jurkat; experiment: Inhibition of TPA/ionomycin-stimulated human TNFalpha promoter expression in human Jurkat T cells at 55 uM by luciferase reporter gene assay relative to control; type: functional; set-up: scale not given: the % may be the effect or the level left
SMILES,IC50 [2] [µM],IC50 [3],CC50 [9] [µg/mL],CC90 [9] [µg/mL],CC50 [10] [µg/mL],CC90 [10] [µg/mL],CC50 [11] [µg/mL],CC50 [12] [µg/mL],CC90 [12] [µg/mL],CC50 [13] [µg/mL],CC90 [13] [µg/mL],CC50 [14] [µg/mL],CC90 [14] [µg/mL],CC50 [15] [µg/mL],CC90 [15] [µg/mL],other results
CCCCCCCCCCCC(=O)[C@]1(O)C[C@H](C(=O)OC)C(C(=O)OCC)=C2N(Cc3ccccc3)CCN21,3.6,4.6 µM,10,50,10,25,50,5,25,10,25,10,50,10,25,IC50 [1]: 4.6 µM; IC50 [4]: 4.6 µM; IC50 [5]: 4.6 µM; IC50 [6]: 18.4 µM; IC50 [7]: 4.6 µM; IC50 [8]: 4.6 µM; Activity [16]: inactive; Activity [17]: inactive; Activity [18]: inactive; Activity [19]: inactive; Activity [20]: inactive
CCCCCCCCCCCC(=O)[C@]1(O)C[C@H](C(=O)O)C(C(=O)OCC)=C2N(Cc3ccccc3)CCN21,9.5,,10,50,25,,> 50,10,50,10,50,10,50,10,25,
CCCCCCCCCCCC(=O)[C@]1(O)C[C@H](C(=O)OCC)C(C(=O)OCC)=C2N(Cc3ccccc3)CCN21,9.5,,10,> 50,10,50,50,5,25,10,25,10,50,10,25,Activity [21]: 25%
CCOC(=O)/C=C1\NCCN1Cc1ccccc1,,10 µg/mL,,,,,,,,,,,,,,
CCCCCCCCCCCC(=O)C(=O)/C=C/C(=O)O,,,,,,,,,,,,,,,,Activity [2]: inactive

# Reference: ChEMBL document CHEMBL1143128, “Imidazo[1,2-a]pyridine derivatives as inhibitors of TNF-alpha expression in T cells” (Bioorg Med Chem, 2008)
